Data taken from the NIST ThermoML archive (doi:10.1016/j.jct.2016.11.009).
Numbers after ± are expanded uncertainties.

Assay: xn = mol fraction of the nth substance listed
Details: Fluid (supercritical or subcritical phases), Buoyancy - hydrostatic balance with magnetic suspension - one sinker

C [methane] + O=C=O
Details	mass density [kg/m3]
303.29 K, 11998 kPa, x2 = 0.8988	626.792 ± 6.3
303.29 K, 15006 kPa, x2 = 0.3997	237.974 ± 1.7
305.01 K, 18003 kPa, x2 = 0.8988	732.397 ± 4.9
305.04 K, 7997 kPa, x2 = 0.8988	244.829 ± 2.6
305.06 K, 9978 kPa, x2 = 0.8988	474.418 ± 7.9
305.08 K, 11001 kPa, x2 = 0.3997	159.477 ± 1
305.09 K, 12002 kPa, x2 = 0.0998	107.694 ± 0.75
305.1 K, 4001 kPa, x2 = 0.3997	47.504 ± 0.26
305.1 K, 17995 kPa, x2 = 0.6015	408.107 ± 3.1
305.11 K, 3997 kPa, x2 = 0.7985	72.035 ± 0.34
305.11 K, 5997 kPa, x2 = 0.0998	49.434 ± 0.32
305.11 K, 6003 kPa, x2 = 0.7985	122.855 ± 0.66
305.12 K, 3998 kPa, x2 = 0.8988	79.325 ± 0.38
305.12 K, 5006 kPa, x2 = 0.7985	95.778 ± 0.47
305.13 K, 6992 kPa, x2 = 0.0998	58.605 ± 0.38
305.13 K, 6994 kPa, x2 = 0.8988	182.804 ± 1.3
305.13 K, 9002 kPa, x2 = 0.0998	77.799 ± 0.52
305.13 K, 11012 kPa, x2 = 0.6015	223.4 ± 1.7
305.13 K, 14994 kPa, x2 = 0.3997	233.75 ± 1.6
305.14 K, 5001 kPa, x2 = 0.6015	76.729 ± 0.38
305.14 K, 14994 kPa, x2 = 0.7985	546.063 ± 4.5
305.15 K, 3979 kPa, x2 = 0.6015	58.587 ± 0.29
305.15 K, 6000 kPa, x2 = 0.6015	96.024 ± 0.5
305.15 K, 7998 kPa, x2 = 0.0998	68.122 ± 0.45
305.15 K, 9004 kPa, x2 = 0.6015	165.984 ± 1.1
305.15 K, 11001 kPa, x2 = 0.2017	116.026 ± 0.77
305.15 K, 11998 kPa, x2 = 0.2017	128.322 ± 0.86
305.15 K, 12006 kPa, x2 = 0.3997	178.104 ± 1.2
305.16 K, 3003 kPa, x2 = 0.0998	23.496 ± 0.17
305.16 K, 4003 kPa, x2 = 0.0998	31.879 ± 0.22
305.16 K, 8002 kPa, x2 = 0.2017	80.173 ± 0.49
305.16 K, 8998 kPa, x2 = 0.3997	123.489 ± 0.72
305.16 K, 10996 kPa, x2 = 0.8988	555.932 ± 7.1
305.16 K, 14996 kPa, x2 = 0.0998	137.438 ± 0.97
305.16 K, 15000 kPa, x2 = 0.6015	340.932 ± 2.8
305.16 K, 18000 kPa, x2 = 0.2017	199.543 ± 1.4
305.17 K, 6999 kPa, x2 = 0.6015	117.142 ± 0.65
305.17 K, 7000 kPa, x2 = 0.7985	154.794 ± 0.95
305.17 K, 10003 kPa, x2 = 0.0998	87.669 ± 0.6
305.17 K, 10999 kPa, x2 = 0.0998	97.609 ± 0.67
305.17 K, 18001 kPa, x2 = 0.0998	165.624 ± 1.2
305.18 K, 4001 kPa, x2 = 0.2017	37.03 ± 0.22
305.18 K, 4996 kPa, x2 = 0.3997	60.999 ± 0.32
305.18 K, 5001 kPa, x2 = 0.2017	47.235 ± 0.28
305.18 K, 6000 kPa, x2 = 0.3997	75.426 ± 0.41
305.18 K, 7002 kPa, x2 = 0.3997	90.651 ± 0.5
305.18 K, 8000 kPa, x2 = 0.6015	140.462 ± 0.83
305.18 K, 9997 kPa, x2 = 0.3997	141.056 ± 0.86
305.18 K, 11999 kPa, x2 = 0.7985	429.815 ± 4.5
305.18 K, 14999 kPa, x2 = 0.2017	165.099 ± 1.2
305.18 K, 18002 kPa, x2 = 0.7985	608.035 ± 4.3
305.19 K, 7000 kPa, x2 = 0.2017	68.786 ± 0.42
305.19 K, 9001 kPa, x2 = 0.2017	91.841 ± 0.57
305.19 K, 9001 kPa, x2 = 0.7985	243.07 ± 2.1
305.19 K, 12005 kPa, x2 = 0.6015	253.791 ± 2.1
305.2 K, 5004 kPa, x2 = 0.8988	106.835 ± 0.57
305.2 K, 10000 kPa, x2 = 0.2017	103.792 ± 0.67
305.2 K, 11001 kPa, x2 = 0.7985	369.844 ± 4.1
305.2 K, 11998 kPa, x2 = 0.8988	604.408 ± 6.4
305.21 K, 8996 kPa, x2 = 0.8988	345.688 ± 5.7
305.21 K, 15000 kPa, x2 = 0.8988	683.999 ± 5.4
305.22 K, 6000 kPa, x2 = 0.2017	57.81 ± 0.35
305.22 K, 8006 kPa, x2 = 0.3997	106.718 ± 0.61
305.22 K, 10006 kPa, x2 = 0.6015	193.541 ± 1.4
305.23 K, 5002 kPa, x2 = 0.0998	40.525 ± 0.27
305.23 K, 6002 kPa, x2 = 0.8988	139.912 ± 0.94
305.23 K, 10000 kPa, x2 = 0.7985	303.258 ± 3.2
305.24 K, 8000 kPa, x2 = 0.7985	193.79 ± 1.4
305.24 K, 17994 kPa, x2 = 0.3997	283.653 ± 2
308.05 K, 7997 kPa, x2 = 0.8988	229.008 ± 2.1
308.06 K, 6995 kPa, x2 = 0.8988	175.453 ± 1.2
308.08 K, 10996 kPa, x2 = 0.3997	155.394 ± 0.76
308.09 K, 8982 kPa, x2 = 0.8988	306.981 ± 4.1
308.11 K, 7002 kPa, x2 = 0.6015	114.28 ± 0.63
308.11 K, 7996 kPa, x2 = 0.2017	78.731 ± 0.48
308.11 K, 18002 kPa, x2 = 0.8988	711.774 ± 5.2
308.12 K, 8003 kPa, x2 = 0.6015	136.504 ± 0.8
308.12 K, 11997 kPa, x2 = 0.7985	401.005 ± 4.1
308.12 K, 18001 kPa, x2 = 0.2017	195.388 ± 1.4
308.12 K, 18004 kPa, x2 = 0.0998	162.496 ± 1.2
308.13 K, 8003 kPa, x2 = 0.3997	104.538 ± 0.58
308.13 K, 9004 kPa, x2 = 0.2017	90.207 ± 0.57
308.13 K, 10002 kPa, x2 = 0.2017	101.87 ± 0.67
308.13 K, 11000 kPa, x2 = 0.0998	95.867 ± 0.64
308.13 K, 11001 kPa, x2 = 0.6015	214.588 ± 1.6
308.13 K, 15001 kPa, x2 = 0.7985	523.511 ± 4.4
308.13 K, 15007 kPa, x2 = 0.6015	328.628 ± 2.6
308.14 K, 5002 kPa, x2 = 0.2017	46.531 ± 0.28
308.14 K, 5997 kPa, x2 = 0.6015	93.812 ± 0.49
308.14 K, 6001 kPa, x2 = 0.3997	74.193 ± 0.42
308.14 K, 8998 kPa, x2 = 0.6015	160.546 ± 1
308.14 K, 11000 kPa, x2 = 0.2017	113.723 ± 0.73
308.14 K, 11000 kPa, x2 = 0.7985	342.357 ± 2.9
308.14 K, 12002 kPa, x2 = 0.6015	243.454 ± 1.9
308.14 K, 14996 kPa, x2 = 0.3997	227.135 ± 1.6
308.15 K, 3000 kPa, x2 = 0.0998	23.193 ± 0.17
308.15 K, 6999 kPa, x2 = 0.0998	57.796 ± 0.38
308.15 K, 8996 kPa, x2 = 0.3997	120.739 ± 0.7
308.15 K, 14997 kPa, x2 = 0.0998	134.77 ± 0.95
308.16 K, 4002 kPa, x2 = 0.2017	36.486 ± 0.22
308.16 K, 4004 kPa, x2 = 0.6015	57.94 ± 0.28
308.16 K, 4006 kPa, x2 = 0.7985	70.911 ± 0.33
308.16 K, 5006 kPa, x2 = 0.3997	60.225 ± 0.32
308.16 K, 9001 kPa, x2 = 0.7985	229.843 ± 1.8
308.16 K, 9993 kPa, x2 = 0.8988	417.764 ± 6.8
308.16 K, 10002 kPa, x2 = 0.6015	186.699 ± 1.3
308.16 K, 11997 kPa, x2 = 0.0998	105.588 ± 0.71
308.16 K, 15001 kPa, x2 = 0.2017	161.57 ± 1.1
308.16 K, 17997 kPa, x2 = 0.3997	276.178 ± 1.9
308.17 K, 3998 kPa, x2 = 0.0998	31.42 ± 0.21
308.17 K, 5006 kPa, x2 = 0.7985	93.74 ± 0.44
308.17 K, 9004 kPa, x2 = 0.0998	76.501 ± 0.51
308.17 K, 9994 kPa, x2 = 0.3997	137.721 ± 0.83
308.17 K, 18002 kPa, x2 = 0.7985	590.479 ± 4.3
308.18 K, 6001 kPa, x2 = 0.2017	56.895 ± 0.34
308.18 K, 6999 kPa, x2 = 0.2017	67.631 ± 0.41
308.18 K, 8000 kPa, x2 = 0.7985	185.875 ± 1.2
308.18 K, 9999 kPa, x2 = 0.0998	86.118 ± 0.57
308.19 K, 6002 kPa, x2 = 0.0998	48.761 ± 0.33
308.19 K, 6002 kPa, x2 = 0.7985	119.651 ± 0.64
308.19 K, 18000 kPa, x2 = 0.6015	395.269 ± 2.9
308.2 K, 11998 kPa, x2 = 0.2017	125.636 ± 0.84
308.21 K, 5001 kPa, x2 = 0.0998	39.985 ± 0.27
308.21 K, 7002 kPa, x2 = 0.7985	149.932 ± 0.88
308.22 K, 5002 kPa, x2 = 0.8988	104.568 ± 0.51
308.22 K, 5006 kPa, x2 = 0.6015	75.217 ± 0.37
308.22 K, 7001 kPa, x2 = 0.3997	88.937 ± 0.52
308.22 K, 10003 kPa, x2 = 0.7985	282.745 ± 2.7
308.23 K, 4004 kPa, x2 = 0.8988	78.335 ± 0.35
308.23 K, 5998 kPa, x2 = 0.8988	135.871 ± 0.8
308.23 K, 12000 kPa, x2 = 0.3997	173.174 ± 1.1
308.24 K, 8000 kPa, x2 = 0.0998	67.015 ± 0.45
308.24 K, 11004 kPa, x2 = 0.8988	513.225 ± 6.9
308.26 K, 4003 kPa, x2 = 0.3997	46.849 ± 0.25
308.26 K, 14998 kPa, x2 = 0.8988	660.797 ± 5.4
308.34 K, 11928 kPa, x2 = 0.8988	563.033 ± 6.3
